We go through two molecules from patent EP4671240A1, “SALT CONTAINING AROMATIC RING DERIVATIVE ANTAGONIST, PREPARATION METHOD THEREFOR, AND APPLICATION THEREOF” (Jiangsu Hansoh Pharmaceutical Group Co., Ltd., priority 2023, dated 2024).

The term IC50 denotes the concentration that gives 50% inhibition.

The target in this test is T1, AT1 receptors (Homo sapiens, UniProt P30556).
T1 construct: host or cells: HEK293
T1 sequence (P30556 1-359): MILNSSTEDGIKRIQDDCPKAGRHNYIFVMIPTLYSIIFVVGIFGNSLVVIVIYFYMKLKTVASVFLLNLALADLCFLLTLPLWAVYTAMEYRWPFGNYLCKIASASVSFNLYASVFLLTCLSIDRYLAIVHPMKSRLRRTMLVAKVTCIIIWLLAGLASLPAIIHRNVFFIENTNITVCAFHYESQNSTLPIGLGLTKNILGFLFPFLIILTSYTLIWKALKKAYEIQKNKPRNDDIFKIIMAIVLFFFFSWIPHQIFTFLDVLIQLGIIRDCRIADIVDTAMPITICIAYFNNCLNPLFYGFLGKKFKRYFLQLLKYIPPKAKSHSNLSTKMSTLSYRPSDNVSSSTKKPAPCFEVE
Description: effect on calcium current in cells stably expressing AT1 receptors (HEK293-AT1, FLIPR, antagonist). The class given is cell-based. The following applies: 11 concentration points 10 uM to 0.17 nM. The source says:
Test example 1. Determination of the effect of the compounds of the present invention on calcium current in cells stably expressing AT1 receptors 1. Experimental objective: To test the antagonistic effect of compounds on HEK293-AT1 cell activity 2. Experimental instruments and reagents: 2.1 Instruments: • 384-well assay plate (Corning: 3764); • 384-well Echo compound plate (Labcyte: LP-0200); • 384-well compound plate (PE: 6008590); • Bravo Tip (Agilent: 10734-202); • FLIPR Tip (Molecular Device: 9000-0764); • Plate reader FLIPR Tetra (Molecular Device); • Pipetting workstation Bravo (Agilent); • ECHO 550 (LABCYTE); • Liquid injector Multidrop Combi (ThermoFisher). […] Experimental data processing method: FLIPR Tetra was used to read and collect the fluorescence signal value (RFU). The maximum RFU value was used to calculate the percent activation data based on the readings of the Low control (DMSO control) and High control (100 nM positive compound) experimental groups {% activation rate = (RFUsample - RFUlow control) / (RFUhigh control - RFUlow control)×100}. […]

Each structure is given as a SMILES string.

With `[2H]C([2H])(c1ccc(-c2ccccc2S(=O)(=O)Nc2noc(C)c2Cl)c(COCC)c1)N1C(=O)C2(CCCC2)N=C1CCCC` [Example 2, 4'-((2-Butyl-4-oxo-1,3-diazaspiro[4.4]non-1-en-3-yl)methyl-d2)-N-(4-chloro-5-methylisoxazol-3-yl)-2'-(ethoxymethyl)-[1,1'-biphenyl]-2-sulfonamide], the IC50 turned out to be 6.2 nM.
With `CCCCC1=NC2(CCCC2)C(=O)N1Cc1ccc(-c2ccccc2S(=O)(=O)Nc2noc(C)c2Cl)c(COCC)c1` [Example 8, 2-[4-[(2-Butyl-4-oxo-1,3-diazaspiro[4.4]non-1-en-3-yl)methyl]-2-(ethoxymethyl)phenyl]-N-(4-chloro-5-methyl-isoxazol-3-yl)benzenesulfonamide], the IC50 is 3.2 nM.
